Assay results taken from US20200216906A1, “METHODS AND COMPOSITIONS RELATING TO THE DIAGNOSIS AND TREATMENT OF CANCER” (PRESIDENT AND FELLOWS OF HARVARD COLLEGE, priority 2015, published 2020).
Where a name gives a salt, the structure may show the parent alone. Read-outs that look alike come from different tables or passages of the source.

Legend:
[1] = system: Panc02.13 cells expressing the YAPS6A mutant; test: 3D spheroid growth assay, Panc02.13 cells expressing YAPS6A; format: cell-based, human; details: YAP activity increased
[2] = system: Panc02.13 cells expressing YAPS6A construct; test: Kinetic cell growth assay, Panc02.13 cells expressing YAPS6A; format: cell-based, human; details: for EC50: Homo sapiens, YAPS6A construct
Protocol: (§1) Panc02.13 cells were used to express YAPS6A (or vector controls) under sparse and dense cultures. Expression was confirmed by confocal microscopy (data not shown). Suppression of the Hippo pathway by expression of non-phospho, active form of YAP (YAPS6A) sensitized pancreatic cancer cells to gemcitabine and 5-FU (FIGS. 6 and 7). Apoptosis was measured by immunobloting with cleaved caspases 3/7 or PARP. Blots were also stained with anti-β-actin for loading control. The effect of Hippo pathway suppression on gemcitabine and 5-FU senstitization was maintained in 3D spheroid culture (FIG. 8). The effects of eleven cytotoxic drugs on the growth of Panc02.13 cells expressing vector only or YAPS6A construct grown under low or high densities were determined (Table 1).
(§2) The effect of gemcitabine on pancreatic cancer cell growth was studied using a kinetic cell growth assay. Pancreatic cancer cells were plated on 96-well plates (Essen ImageLock, Essen Instruments, MI, US) at varying densities (2-4×10^3 for low density or 15-20×10^3 for high density experiments). Small molecule inhibitors at different doses were added 24 hours after plating and cell confluence was monitored with Incucyte Live-Cell Imaging System and software (Essen Instruments). Confluence was observed every hour for 48-144h or until the control (DMSO only) samples reached 100% confluence.
Cell lines (Panc02.13, Panc10.05 or Miapaca2) were transfected with YAPS6A constructs (Addgene) using Lipofectamine™ (Invitrogen, Carlsbad, Calif.) following the manufacturer's instructions and 48 hour post-transfection selected in 5-10 μg/ml Blasticidin (InvivoGen, San Diego, Calif.). The clones screened for YAPS6A expression by Western blot. Stable cell lines were maintained in complete medium and 5 μg/ml Blasticidin.
as §2, with “Kinetic Cell growth assay. The” for “The”, “(2-4X103” for “(2-4×10^3”, “15-20X103” for “15-20×10^3”, “Incucyte™” for “Incucyte”

[3] = Stability of gemcitabine in culture and conditioned media; format: in vitro ADME
From the text: Drug availability mediated by transport or binding or export from the cell is known to be a major determinant of the sensitivity to chemotherapy (O'CONNOR, 2007). […] Furthermore, conditioned media collected from Panc02.13 cells exposed to gemcitabine after 5 days retained 96.7% activity (FIGS. 35A-[…]).

[4] = system: Panc02.13 cells expressing vector only (02.13-WT); test: Kinetic cell growth assay, Panc02.13 cells expressing vector only; format: cell-based, human; details: Homo sapiens
Protocol: as §1, §2
as §2, with “Kinetic Cell growth assay. The” for “The”, “(2-4X103” for “(2-4×10^3”, “15-20X103” for “15-20×10^3”, “Incucyte™” for “Incucyte”

[5] = system: Panc02.13 cells; test: Radiolabeled gemcitabine efflux; format: in vitro ADME, human; details: counts per μg protein; more in Hippo-ON
Protocol: Panc02.13 cells expressing GFP or YapS6A plasmid were treated with radiolabeled gemcitabine (0.5 μM) for one hour. Cells were washed twice with PBS and incubated in fresh medium. Medium was collected over the time course of 24 hours and radioactivity was measured using scintillation counter.
It was considered whether the Hippo pathway might affect the efflux of gemcitabine and/or its metabolites. To assess directly gemcitabine efflux in conditioned media of pancreatic cancer cells both radiolabeled gemcitabine and LC-MS/MS-based methods were used. Panc02.13 cells grown in highly crowded conditions (Hippo-ON) pumped out 2-3-fold more radiolabeled gemcitabine (counts per μg protein) compared with cells grown in less crowded conditions (Hippo-OFF) (FIG. 22A). Another pathway of inactivation and export is the enzymatic conversion of gemcitabine to a uracil derivative (2′,2′-difluorodeoxyuridine, dFdU) by deamination catalyzed by cytidine deaminase (CDA)(Veltkamp et al., 2008). The efflux of gemcitabine and its deaminated metabolite, dFdU was measured by LC-MS/MS (24) in Panc02.13 cells expressing YAPS6A or vector control after gemcitabine treatment (FIG. 22B).
Measuring gemcitabine efflux. […] Medium was collected over the time course of 24 hours and radioactivity was measured using scintillation counter.

[6] = system: patient-derived xenograft (PDX) models; test: Patient-derived xenograft (PDX) models, tumor growth inhibition; format: in vivo, mouse; details: 20 PDX models, p=0.01
From the text: An alternative to an endogenous mouse models for capturing effects of the tumor environment are patient-derived xenograft (PDX) models. […] At the cellular level, PDX models also preserve the intra-tumoral heterogeneity, as well as the molecular characteristics of the original cancer, including copy number variants, single-nucleotide polymorphisms, and gene expression profiles (Choi et al., 2014; DeRose et al., 2011). […] When patient-derived xenograft PDX models were used to assess whether YAP activation sensitizes solid tumors to gemcitabine significant effects were found. The studies were performed in the following manner: Tumor fragments (around 64 mm^3) were implanted into the flanks of recipient mice and tumor dimensions recorded with digital calipers. Once tumor implants reached a volume of approximately 200 mm3, dosing with gemcitabine (or vehicle control) began. At the completion of the study completion, the percent tumor growth inhibition (% TGI) was calculated for gemcitabine (G) and the vehicle control (C) using initial (i) and final (f) tumor measurements by the formula: % TGI=[1−(Gf−Gi)/(Cf−Ci)]x100.
Patient-derived xenograft (PDX) models. PDX models were established by Champions Oncology (Baltimore, Md.) as described previously (Khor et al., 2015). Drug response to 20 PDX models was obtained from Champions TumorGraft® Database (available on the world wide web at database.championsoncology.com/).
Immunohistochemistry. Human primary tumor tissue slides were obtained from Champions Oncology (Baltimore, Md.). Immunohistochemistry using anti YAP1 antibody (Abcam Cat # ab52771) was performed as previously described (Shi et al., 1999). For negative controls, primary antibody was omitted. The intensity of YAP staining was assessed by an independent pathologist using a four-grade scale: “0” is negative. “0.5” is borderline staining with no significance. “1” is weak staining. “1.5” is weak staining with foci of moderate staining. “2” is moderate staining. […] YAP scoring index was calculated based on staining intensity * % of positive target cells.

Nc1ccn([C@@H]2O[C@H](CO)[C@@H](O)C2(F)F)c(=O)n1 [Gemcitabine, Gemcitabine hydrochloride]
Efficacy in inhibiting cell growth when the Hippo pathway was inhibited [1]: increased efficacy in inhibiting cell growth | EC50 ([2]; high density, read-out: High density (EC50, nM) 02.13-YAPS6A): 17 nM | EC50 ([2]; low density, read-out: Low density (EC50, nM) 02.13-YAPS6A): 1.7 nM | Sensitization by expression of YAPS6A ([2]; suppression of the Hippo pathway, high cell density): sensitized | Activity retained in conditioned media ([3]; conditioned media from Panc02.13 cells after 5 days): 96.7% | Lability in culture media ([3]; culture media): not labile | EC50 ([4]; high density, read-out: High density (EC50, nM) 02.13-WT): 1100 nM | EC50 ([4]; low density, read-out: Low density (EC50, nM) 02.13-WT): 1.6 nM | Radiolabeled gemcitabine pumped out, highly crowded vs less crowded [5]: 2-3 fold | Difference in % TGI, high vs low YAP activity tumors [6]: ~2 fold
